From patent publication US12214008B2, “Protein interfaces” (SyntheX, Inc., priority 2016, dated 2025)
Entries after “also recorded” stand apart in the source; their conditions may differ. Residues, ends and D or L forms follow the SMILES beside them. Groups on a side chain read outwards from the residue. *: point of attachment. 5FAM = O=C1OC2(c3ccc(O)cc3Oc3cc(O)ccc32)c2ccc(C(=O)*)cc21; Ahx = NCCCCCC(=O)O

Key:
SSP-25 cells [1] = experiment: xCELLigence cell death assay; format: cell-based; conditions: for rescue of compound 10-induced cell death by ruthenium red: 40 μM Ruthenium red added to cells treated with 10 μM compound 10
Procedure: Further, singly-dosed cells continued to recover, which indicated reduced general cytotoxicity of the compound in the media or the lysed cells.
To optimize cellular activity, compounds were tested in xCELLigence cell death assays against various cell lines. An example of the workflow used is shown using A549 cells and compound 10 in FIGS. 15 and 16. […] Data from xCELLigence traces at different compound concentrations from FIG. 15 was then used to generate a dose-response curve, which was then subjected to nonlinear regression using a sigmoidal dose-response model to generate IC50s and R2 values for cell death for each compound/cell line combination (FIG. 16).
To further investigate the hypothesis that peptide binding to RAD51 in cells causes cell death via increases in intracellular free calcium levels, compound 10 alone and in combination with two different intracellular calcium chelators (1,2-Bis(2-aminophenoxy) ethane-N,N,N′,N′-tetraacetic acid tetrakis(acetoxymethyl ester) aka “BAPTA-AM”, and ammoniated ruthenium oxychloride aka “ruthenium red”) was tested in an xCELLigence™ cell death assay as in Example 3. The intracellular calcium chelators alone were also evaluated on the cells.

GM08505, Blm cells = test system: GM08505, Blm cells
Procedure: To assess the ability of compounds disclosed herein to rescue the drug-sensitivity of Bloom's Syndrome patient cells, GM08505, Blm cells were treated with PBS, 5 μM etoposide, or 5 μM etoposide and 10 μM compound 5.

SSP-25 cells [2] = experiment: MTT growth inhibition assay; format: cell-based; conditions: 5 μM or 10 μM, 48 hours of cell growth, vs water mock
Procedure: To assess the growth inhibitory properties of compounds disclosed herein, 5 μM or 10 μM of compounds 1, 3, and 5 were tested against a water mock treatment for growth inhibition of SSP-25 cells using an MTT assay after 48 hours of cell growth.

HeLa = conditions: compound 5 at 5 μM, compound 1 at 10 μM
Procedure: (§1) To assess the specificity of compounds disclosed herein in targeting cancers with mutations in the BRCA2 pathway, compounds 1 and 5 were tested against HeLa (human cervical cancer) and SSP-25 cells (cholangiocarcinoma cell line) (FIG. 2). To measure killing of the cells by compounds 1 and 5, a cell stain (CytoTox Red™) was used, which can be measured spectrophotometrically, and is indicative of cell viability. First, 5,000 cells were incubated in 96-well culture plates overnight. The media (RPMI with 10% FBS) was removed and replaced with serum free media (RPMI) containing 125 nM CytoTox Red™. FITC-labeled compounds 5 and 1 were added to concentrations of 5 μM and 10 μM, respectively, and imaging commenced using an IncuCyte™ instrument using 15 minute time points. 2× serum-containing media was added after one hour incubation, and the cells were imaged every 2 hours. To detect CytoTox Red™ the following parameters were used: Excitation Wavelength: 585 nm; Passband: [565,605] nm and Emission Wavelength: 635 nm; Passband: [625, 705] nm. To detect compounds 5 and 1 using the FITC label, the following parameters were used: Excitation Wavelength: 460 nm; Passband: [440,480] nm and Emission Wavelength: 524 nm; Passband: [504,544] nm was used.

SSP-25 cells [3] = conditions: compound 5 at 5 μM, compound 1 at 10 μM; vs PBS
Procedure: as §1

RAD51 = biological target: T1, RAD51 (Homo sapiens, UniProt Q06609); experiment: microscale thermophoresis; format: binding; conditions: 0 vs 1 mM Ca2+
T1 sequence (Q06609 1-339): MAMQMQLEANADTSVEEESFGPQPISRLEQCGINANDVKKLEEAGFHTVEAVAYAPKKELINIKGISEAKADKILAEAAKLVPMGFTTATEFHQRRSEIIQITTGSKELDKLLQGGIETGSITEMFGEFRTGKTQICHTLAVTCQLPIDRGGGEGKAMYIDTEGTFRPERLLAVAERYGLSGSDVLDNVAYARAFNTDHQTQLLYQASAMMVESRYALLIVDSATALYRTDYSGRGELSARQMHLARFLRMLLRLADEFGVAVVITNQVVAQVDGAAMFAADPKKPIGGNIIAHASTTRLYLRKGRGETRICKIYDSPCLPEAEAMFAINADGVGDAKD
Procedure: To test the interaction between calcium binding and peptide binding to RAD51, the Kds of active (Compound 5, 10) peptides for RAD51 were tested by a microscale thermophoresis assay, and the Kd of compound 5 was additionally performed in the presence of 1 mM calcium.
Microscale thermophoresis was performed as previously described (see, for e.g. Jerabek-Willemsen, M., Wienken, C. J., Braun, D., Baaske, P. & Duhr, S. Molecular interaction studies using microscale thermophoresis. Assay Drug Dev. Technol. 9, 342-353 (2011)). The affinity of the Compound was measured using the Monolith NT.115 from Nanotemper Technologies. Rad51 was fluorescently labelled according to the manufacturer's protocol and the labelled protein used for each assay was about 500 nM. A solution of unlabelled peptide was diluted for appropriate serial concentration gradient. The samples were loaded into silica capillaries (Polymicro Technologies). Measurements were performed at room temperature in buffer containing PBS, 0.1% Tween 20, 0.5 mM ATP, 2.5 uM ssDNA, with 1 mM CaCl2 (when mentioned). Measurements were done using 12% LED power and 60% MST power. The assays were repeated three times for each affinity measurement. Data analyses were performed using Nanotemper Analysis software and OriginPro 8.0 software provided by the manufacturer.

PC3 cells = experiment: xCELLigence cell death assay; conditions: 60 μM at 24 hours
Procedure: First, 5,000 PC3 cells were plated, and adherence and growth was measured for 24 hours using live measurements of current impedance through the plate using the xCELLigence™ instrument. […] This was repeated again at the 124 hour mark.

SSP-25 cells [4] = experiment: growth assay (percent confluence); format: cell-based; conditions: 5 μM or 10 μM, compared to PBS
Procedure: A growth assay was performed using SSP-25 cells with 5 μM or 10 μM of compound 1. […] The experimental protocol described in Example 3 was used for the growth assay.
The same growth assay was repeated using 10 μM of compound 1 and compound 2. Compound 2 contains a single substitution within the core consensus sequence, which interrupts the binding of compound 2 to RAD51.

Molecule: N.N.N.N.N.N.N.N.N.N.N.N.N.N.[Cl-].[Cl-].[Cl-].[Cl-].[Cl-].[Cl-].[O-2].[O-2].[Ru+3].[Ru+3].[Ru+4] [Ruthenium red, ammoniated ruthenium oxychloride]
- rescue of compound 10-induced cell death by ruthenium red (SSP-25 cells [1]): able to counteract the cell-death inducing effects of compound 10; also recorded: rescues cell death relative to compound alone
- rescue of compound 10-induced cell death by ruthenium red (SSP-25 cells [1]; listed as ruthenium red): rescues cell death due to compound 10

Molecule: COc1cc([C@@H]2c3cc4c(cc3[C@@H](O[C@@H]3O[C@@H]5CO[C@@H](C)O[C@H]5[C@H](O)[C@H]3O)[C@H]3COC(=O)[C@H]23)OCO4)cc(OC)c1O [etoposide, reference compound]
- growth of Blm cells (percent confluence) (GM08505, Blm cells; 5 μM etoposide alone): growth of the Blm cells was affected

Molecule: CC(=O)OCOC(=O)CN(CC(=O)OCOC(C)=O)c1ccccc1OCCOc1ccccc1N(CC(=O)OCOC(C)=O)CC(=O)OCOC(C)=O [BAPTA-AM, 1,2-Bis(2-aminophenoxy) ethane-N,N,N′,N′-tetraacetic acid tetrakis(acetoxymethyl ester)]
- rescue of compound 10-induced cell death by BAPTA-AM (SSP-25 cells [1]; 10 μM BAPTA-AM added to cells treated with 10 μM compound 10): able to counteract the cell-death inducing effects of compound 10; also recorded: rescues cell death relative to compound alone; also recorded: rescues cell death due to compound 10

Molecule: KQSLRLGLSRLARVKRLHPGARRRRRRRR [Compound 3]
- growth inhibition of SSP-25 cells (SSP-25 cells [2]): dose-dependent effect on the growth of SSP-25

Molecule: CSCC[C@H](NC(=O)[C@H](CCCNC(=N)N)NC(=O)[C@H](CO)NC(=O)[C@@H](NC(=O)[C@H](CCCNC(=N)N)NC(=O)[C@H](CC(C)C)NC(=O)[C@H](CCCNC(=N)N)NC(=O)[C@@H](NC(=O)CNC(=O)[C@H](CC(C)C)NC(=O)[C@H](CCCNC(=N)N)NC(=O)[C@H](CCCCN)NC(=O)[C@H](CCCNC(=N)N)NC(=O)[C@H](CCCNC(=N)N)NC(=O)[C@H](CCCNC(=N)N)NC(=O)[C@H](CCCNC(=N)N)NC(=O)[C@H](CCCNC(=N)N)NC(=O)[C@H](CCCNC(=N)N)NC(=O)[C@H](CCCNC(=N)N)NC(=O)[C@H](CCCCNC(=O)CCCCCNC(=O)c1ccc2c(c1)C(=O)OC21c2ccc(O)cc2Oc2cc(O)ccc21)NC(C)=O)C(C)C)C(C)C)C(=O)N[C@@H](CC(C)C)C(N)=O [Compound 5] (Ac-K([Ahx-5FAM])RRRRRRRKRLGVRLRVSRML-NH2)
- growth inhibition of SSP-25 cells (SSP-25 cells [2]): strongest inhibitory effect, regardless of concentration
- efficacy in acidified media (SSP-25 cells [1]; 30 μM added at 72 hours to previously untreated cells): efficacy of compound 5 in acidified media
- cell death kinetics (cell index) (SSP-25 cells [1]; 30 μM compound 5 added at 20 hours): acute cell death kinetics
- cell death (CytoTox Red staining) in HeLa cells (HeLa): little cell death is generated in the HeLa cells compared to the SSP-25 cells
- cell death (CytoTox Red staining) in SSP-25 cells (SSP-25 cells [3]): greatest efficacy in the SSP-25 cells
- rescue of etoposide-induced growth defect of Blm cells (percent confluence) (GM08505, Blm cells; 5 μM etoposide and 10 μM compound 5, comparable to PBS): able to rescue the hypersensitivity of a Bloom's cell line (GM08505) to a genotoxic stress (etoposide); also recorded: suppression of cell growth defects induced by etoposide
- increase of Kd when calcium (Ca2+) raised from 0 to 1 mM (RAD51): 3.4 fold
- cell death of PC3 cells (cell index) (PC3 cells): acute cell death kinetics; also recorded: highly potent
- PC3 cells eliminated (PC3 cells; 100 μM more at 84 and 124 hours, compared to compound 6 and PBS controls): over 75%

Molecule: Ac-K(C6_5FAM)-QSLRLGLSRLARVKRLHPGARRRRRRRR-NH2 (Ac-K(C6_5FAM)QSLRLGLSRLARVKRLHPGARRRRRRRR-NH2) [Compound 1]
- growth inhibition of SSP-25 cells (SSP-25 cells [2]): dose-dependent effect on the growth of SSP-25
- percent confluence of SSP-25 cells (SSP-25 cells [4]): decreased the percent confluence of the cells
